Reference: the CheMixHub ionic liquid set

Experiment: xn = mol fraction of the nth substance listed

CCCC[n+]1ccn(C)c1.O=S(=O)([N-]S(=O)(=O)C(F)(F)F)C(F)(F)F + CN(C)c1ccccc1
100 kPa, x2 = 0
Conditions | viscosity [mPa·s]
288.15 K | 78.4
293.15 K | 61.5
298.15 K | 49.1
303.15 K | 39.9
308.15 K | 33.2
313.15 K | 27.7
318.15 K | 23.5
323.15 K | 20.13
328.15 K | 17.39
333.15 K | 15.2

CCCC[n+]1cccc(C)c1.O=S(=O)([N-]S(=O)(=O)C(F)(F)F)C(F)(F)F + CO
298.15 K, 101.3 kPa
Conditions | electrical conductivity [S/m]
x2 = 0.1004 | 0.338
x2 = 0.7793 | 1.68
x2 = 0.9417 | 2.04
x2 = 0.9589 | 1.83

CCCC[n+]1ccn(C)c1.O=S(=O)([N-]S(=O)(=O)C(F)(F)F)C(F)(F)F + CO
296.35 K, 100 kPa, frequency 0.01 MHz
Conditions | electrical conductivity [S/m]
x1 = 0.008978 | 1.5
x1 = 0.01434 | 2.51
x1 = 0.02356 | 3.1
x1 = 0.04259 | 4.63
x1 = 0.08668 | 4.31

Conditions | electrical conductivity [S/m] | viscosity [mPa·s]
298 K, 100 kPa, x1 = 0.05 | – | 1.017
298 K, 100 kPa, x1 = 0.1927 | – | 3.181
298 K, 100 kPa, x1 = 0.2796 | – | 5.166
298 K, 100 kPa, x1 = 0.6962 | – | 23.01
298 K, 100 kPa, x1 = 1 | – | 49.7
298 K, 101 kPa, x2 = 0.3686 | 0.596 | –
298 K, 101 kPa, x2 = 0.4819 | – | 13.83
298 K, 101 kPa, x2 = 0.7921 | 2.43 | –
298.15 K, 100 kPa, x2 = 0.0986 | – | 42.43
298.15 K, 100 kPa, x2 = 0.7056 | – | 8.01
303.15 K, 100 kPa, x2 = 0 | – | 40.54
303.15 K, 100 kPa, x2 = 0.0986 | – | 34.9
303.15 K, 100 kPa, x2 = 0.4004 | – | 18.48
318.15 K, 100 kPa, x2 = 0.0986 | – | 20.96
318.15 K, 100 kPa, x2 = 0.295 | – | 14.8
318.15 K, 100 kPa, x2 = 0.4923 | – | 9.36
318.15 K, 100 kPa, x2 = 0.7056 | – | 4.52
323.15 K, 100 kPa, x2 = 0.7056 | – | 4.24
323.15 K, 100 kPa, x2 = 0.8978 | – | 1.12

CCCC[n+]1ccn(C)c1.O=S(=O)([N-]S(=O)(=O)C(F)(F)F)C(F)(F)F + CS(C)=O
100 kPa, x2 = 0
Conditions | viscosity [mPa·s]
303.15 K | 40.54
318.15 K | 23.75

CC#N + C[N+](C)(C)CCC[N+]1(C)CCCCC1.N#C[N-]C#N.N#C[N-]C#N
100 kPa, x2 = 0
Conditions | viscosity [mPa·s]
288.15 K | 0.382
298.15 K | 0.348
303.15 K | 0.333
333.15 K | 0.266

CC#N + C[N+](C)(C)CCC[n+]1ccccc1.N#C[N-]C#N.N#C[N-]C#N
100 kPa, x2 = 0
Conditions | viscosity [mPa·s]
328.15 K | 0.275
333.15 K | 0.266

CCCC[n+]1ccccc1.O=S(=O)([N-]S(=O)(=O)C(F)(F)F)C(F)(F)F + Cc1ccccc1
100 kPa
Conditions | viscosity [mPa·s]
293.15 K, x2 = 0.3972 | 22.63
293.15 K, x2 = 0.6068 | 10
298.15 K, x2 = 0 | 52.9
298.15 K, x2 = 0.5025 | 13.64
303.15 K, x2 = 0.2939 | 21.68
308.15 K, x2 = 0.3972 | 14.21
308.15 K, x2 = 0.5025 | 10.54
313.15 K, x2 = 0.3972 | 12.3
313.15 K, x2 = 0.6068 | 6.62

CCCC[n+]1ccn(C)c1.F[P-](F)(F)(F)(F)F + Cc1ccccc1
101 kPa
Conditions | viscosity [mPa·s]
298.15 K, x2 = 0.05 | 172.6
300.65 K, x2 = 0.2 | 74.9
300.65 K, x2 = 0.4 | 31.2
303.15 K, x2 = 0.1 | 73.3
303.15 K, x2 = 0.3 | 39.5
305.65 K, x2 = 0.3 | 32.5
308.15 K, x2 = 0.3 | 27.6
310.65 K, x2 = 0.1 | 39.8
313.15 K, x2 = 0.4 | 14.12
318.15 K, x2 = 0.3 | 17.56
320.65 K, x2 = 0.3 | 16.21
320.65 K, x2 = 0.4 | 11.32
328.15 K, x2 = 0.05 | 27.7
330.65 K, x2 = 0.05 | 26
335.65 K, x2 = 0.4 | 8.8
338.15 K, x2 = 0.05 | 22.02

CCCCCCCC/C=C\CCCCCCCC(=O)O + Cc1ccccc1 + CC[N+](CC)(CC)CC.[Cl-]
298.2 K, 100 kPa
Conditions | viscosity [mPa·s]
x2 = 0, x3 = 0.25 | 202
x2 = 0.2, x3 = 0.2 | 39
x2 = 0.4, x3 = 0.149 | 10.8
x2 = 0.6, x3 = 0.1 | 3.19
x2 = 0.8, x3 = 0.05 | 0.91

CC[n+]1ccn(C)c1.O=S(=O)([O-])O + Cc1ncc(CO)c(CO)c1O.Cl + O
viscosity [mPa·s], 100 kPa
Conditions | 293.15 K | 298.15 K | 303.15 K | 308.15 K | 313.15 K
x2 = 0, x1 = 0.0009002 | 1.048 | 0.945 | 0.835 | 0.758 | 0.693
x2 = 0, x1 = 0.001799 | 1.067 | 0.948 | 0.855 | 0.772 | 0.702
x2 = 0, x1 = 0.002696 | 1.083 | 0.963 | 0.862 | 0.776 | 0.707
x2 = 0.000265, x1 = 0.002695 | 1.088 | 0.968 | 0.867 | 0.781 | 0.712
x2 = 0.0002728, x1 = 0.0008999 | 1.052 | 0.949 | 0.839 | 0.762 | 0.697
x2 = 0.0002827, x1 = 0.001798 | 1.072 | 0.953 | 0.86 | 0.777 | 0.707
x2 = 0.0004855, x1 = 0.0008998 | 1.056 | 0.953 | 0.843 | 0.766 | 0.701
x2 = 0.0005353, x1 = 0.002694 | 1.093 | 0.973 | 0.872 | 0.786 | 0.717
x2 = 0.0005469, x1 = 0.001798 | 1.077 | 0.958 | 0.865 | 0.782 | 0.712
x2 = 0.0008161, x1 = 0.0008994 | 1.062 | 0.959 | 0.849 | 0.772 | 0.707
x2 = 0.0008296, x1 = 0.002693 | 1.099 | 0.979 | 0.878 | 0.792 | 0.723
x2 = 0.0008311, x1 = 0.001797 | 1.082 | 0.963 | 0.87 | 0.787 | 0.717
x2 = 0.001096, x1 = 0.0008992 | 1.067 | 0.964 | 0.854 | 0.777 | 0.712
x2 = 0.001123, x1 = 0.001797 | 1.088 | 0.969 | 0.877 | 0.793 | 0.723
x2 = 0.001138, x1 = 0.002693 | 1.106 | 0.986 | 0.884 | 0.797 | 0.729
x2 = 0.001364, x1 = 0.000899 | 1.073 | 0.97 | 0.86 | 0.784 | 0.718
x2 = 0.001383, x1 = 0.001796 | 1.094 | 0.976 | 0.882 | 0.798 | 0.728
x2 = 0.001395, x1 = 0.002692 | 1.111 | 0.992 | 0.889 | 0.803 | 0.734
x2 = 0.001638, x1 = 0.0008987 | 1.078 | 0.976 | 0.866 | 0.79 | 0.724
x2 = 0.001641, x1 = 0.001796 | 1.099 | 0.981 | 0.888 | 0.805 | 0.734
x2 = 0.001656, x1 = 0.002691 | 1.117 | 0.998 | 0.896 | 0.808 | 0.739
